The values that follow come from patent US20250084040A1, “SUBSTITUTED HETEROCYCLES AS c-MYC TARGETING AGENTS” (Northwestern University, priority 2018, published 2025).

Series [1] in a line: In vitro metabolism, mouse liver microsomes. To be noted: % remaining of compound after 60 min treatment with mouse liver microsomes. The class given is in vitro ADME. On the procedure: In vitro metabolism of NUCC-176242 and NUCC-176248 were tested using mouse liver microsomes and a mouse S9 fraction. (See FIG. 9).
A general note: Microsomes from liver hold many membrane-bound enzymes, among them those of drug oxidation.

The test system of series [2] is wild type and MYC knockout rat fibroblasts. Description: Growth inhibition of MYC wild type versus MYC knockout rat fibroblasts. The class given is cell-based. The text has this:
We tested the top 13 active compounds in the first screen assay. […] More than half of the tested compounds show better growth inhibitory effect on MYC WT compared to MYC KO cells.

The next series relates to NCI 60 cell panel. As to the kind of experiment: NCI 60 Cell One-Dose Screen. The class given is cell-based, human. As to conditions: 1.00E−5 Molar. How it is done:
General Description. As of early 2007 all compounds submitted to the NCI 60 Cell screen are tested initially at a single high dose (10^-5 M) in the full NCI 60 cell panel. Only compounds which satisfy pre-determined threshold inhibition criteria in a minimum number of cell lines will progress to the full 5-dose assay. The threshold inhibition criteria for progression to the 5-dose screen was selected to efficiently capture compounds with anti-proliferative activity based on careful analysis of historical DTP screening data. The threshold criteria may be updated as additional data becomes available.
Interpretation of One-Dose Data. The One-dose data will be reported as a mean graph of the percent growth of treated cells and will be similar in appearance to mean graphs from the 5-dose assay. The number reported for the One-dose assay is growth relative to the no-drug control, and relative to the time zero number of cells. This allows detection of both growth inhibition (values between 0 and 100) and lethality (values less than 0). This is the same as for the 5-dose assay, described below. For example, a value of 100 means no growth inhibition. A value of 40 would mean 60% growth inhibition. A value of 0 means no net growth over the course of the experiment. A value of −40 would mean 40% lethality. A value of −100 means all cells are dead. Information from the One-dose mean graph is available for COMPARE analysis.
The human tumor cell lines of the cancer screening panel are grown in RPMI 1640 medium containing 5% fetal bovine serum and 2 mM L-glutamine. For a typical screening experiment, cells are inoculated into 96 well microtiter plates in 100 μL at plating densities ranging from 5,000 to 40,000 cells/well depending on the doubling time of individual cell lines. After cell inoculation, the microtiter plates are incubated at […], 5% CO2, 95% air and 100% relative humidity for 24 h prior to addition of experimental drugs.
After 24 h, two plates of each cell line are fixed in situ with TCA, to represent a measurement of the cell population for each cell line at the time of drug addition (Tz). Experimental drugs are solubilized in dimethyl sulfoxide at 400-fold the desired final maximum test concentration and stored frozen prior to use. At the time of drug addition, an aliquot of frozen concentrate is thawed and diluted to twice the desired final maximum test concentration with complete medium containing 50 µg/ml gentamicin. Additional four, 10-fold or ½ log serial dilutions are made to provide a total of five drug concentrations plus control. Aliquots of 100 μl of these different drug dilutions are added to the appropriate microtiter wells already containing 100 μl of medium, resulting in the required final drug concentrations.
Following drug addition, the plates are incubated for an additional 48 h at 37° C., 5% CO2, 95% air, and 100% relative humidity. For adherent cells, the assay is terminated by the addition of cold TCA. Cells are fixed in situ by the gentle addition of 50 μl of cold 50% (w/v) TCA (final concentration, 10% TCA) and incubated for 60 minutes at 4° C. The supernatant is discarded, and the plates are washed five times with tap water and air dried. Sulforhodamine B (SRB) solution (100 μl) at 0.4% (w/v) in 1% acetic acid is added to each well, and plates are incubated for 10 minutes at room temperature. After staining, unbound dye is removed by washing five times with 1% acetic acid and the plates are air dried. Bound stain is subsequently solubilized with 10 mM trizma base, and the absorbance is read on an automated plate reader at a wavelength of 515 nm. For suspension cells, the methodology is the same except that the assay is terminated by fixing settled cells at the bottom of the wells by gently adding 50 μl of 80% TCA (final concentration, 16% TCA). […]

For the compound `COc1cccc(-c2c(-c3ccc(OCc4ccc(Cl)cc4)cc3O)n[nH]c2C(F)(F)F)c1` [NUCC-0198309], the “MLM % at 60 min” value in series [1] came out at 74%.
Same read-out and setting: next, `Oc1cc(OCc2ccc(Cl)cc2)ccc1-c1n[nH]c(C(F)(F)F)c1Oc1ccccc1Cl` [NUCC-0196342]: 87.4%; `CCCCCCOc1ccc(-c2cc(C(F)(F)F)n[nH]2)c(O)c1-c1cc(C(F)(F)F)cc(C(F)(F)F)c1` [NUCC-0201196]: 66.6%; `Oc1c(-c2cc(C(F)(F)F)[nH]n2)ccc(Oc2ccc(Cl)cc2)c1-c1cc(C(F)(F)F)cc(C(F)(F)F)c1` [NUCC-0201223]: 75.8%.
The same measure, in the same setting: the figure for `Oc1c(-c2cc(C(F)(F)F)[nH]n2)ccc(OCc2ccc(Cl)cc2)c1-c1ccccc1Cl` [NUCC-0196363] is 88.6%.
Same read-out and setting: next, `CCCCCCOc1ccc(-c2cc(C(F)(F)F)nn2C)c(O)c1-c1cncc(C#N)c1` [NUCC-0201207]: 52.7%; `CCOC(=O)c1cc(-c2ccc(OCc3ccc(Cl)cc3)c(-c3cc(C(F)(F)F)cc(C(F)(F)F)c3)c2O)n[nH]1` [NUCC-0200972]: 60.3%.
Turning to `Cn1nc(C(F)(F)F)cc1-c1ccc(OCc2ccc(Cl)cc2)cc1C=O` [NUCC-0200976], the “MLM % at 60 min” value in series [1] is given as 21.8%.
Same read-out and setting: the figure for `Oc1c(-c2cc(C(F)(F)F)n[nH]2)ccc(OCCN2CCCC2)c1-c1cc(C(F)(F)F)cc(C(F)(F)F)c1` [NUCC-0201032] is 30.5%; for `Cn1nc(C(F)(F)F)cc1-c1ccc(OCc2ccc(Cl)cc2)c(-c2cc(C(F)(F)F)cc(C(F)(F)F)c2)c1O` [NUCC-0196361] it is 72.9%.
With `CCc1c(OCc2ccc(Cl)cc2)ccc(-c2cc(C(F)(F)F)n[nH]2)c1O` [NUCC-0200739], the “MLM % at 60 min” value in series [1] was 46.4%.
Regarding `CCc1ccc(Oc2c(-c3ccc(OCc4ccncc4)cc3O)n[nH]c2C(F)(F)F)cc1` [NUCC-0176250], the “selectivity of growth inhibition, MYC WT compared to MYC KO cells” value in series [2] is recorded as “great selectivity”.
In the case of `Cn1nc(C(F)(F)F)cc1-c1ccc(OCc2ccc(Cl)cc2)c(-c2cccc(C#N)c2)c1O` [NUCC-0198399], the “MLM % at 60 min” value in series [1] stood at 80.3%.
Same read-out and setting: the figure for `CCCCOc1ccc(-c2cc(C(F)(F)F)n(C)n2)c(O)c1-c1cncc(C(F)(F)F)c1` [NUCC-0201209] is 10.3%.
In the case of `CC(C)CCOc1ccc(-c2cc(C(F)(F)F)n[nH]2)c(O)c1-c1cncc(C#N)c1` [NSC: D-804956/1], the “Growth Percent” value was 17.07% in the series with NCI 60 cell panel (786-0 (Renal Cancer)); −25.54% in the series with NCI 60 cell panel (A498 (Renal Cancer)); 10.39% in the series on NCI 60 cell panel (A549/ATCC (Non-Small Cell Lung Cancer)); 8.84% with NCI 60 cell panel (ACHN (Renal Cancer)); 6.56% in the series with NCI 60 cell panel (BT-549 (Breast Cancer)); 9.47% in the series on NCI 60 cell panel (CAKI-1 (Renal Cancer)). The “Growth Percent” value amounted to 6.67% with NCI 60 cell panel (CCRF-CEM (Leukemia)); 49.05% with NCI 60 cell panel (COLO 205 (Colon Cancer)); 17.95% in the series on NCI 60 cell panel (DU-145 (Prostate Cancer)); 3.52% with NCI 60 cell panel (EKVX (Non-Small Cell Lung Cancer)); 16.23% in the series with NCI 60 cell panel (HCC-2998 (Colon Cancer)); 11.96% in the series on NCI 60 cell panel (HCT-15 (Colon Cancer)). Also, the “Growth Percent” value in the series with NCI 60 cell panel (HCT-116 (Colon Cancer)) is listed as 2.41%; with NCI 60 cell panel (HL-60(TB) (Leukemia)), 3.64%; in the series with NCI 60 cell panel (HOP-62 (Non-Small Cell Lung Cancer)), 5.79%; with NCI 60 cell panel (HOP-92 (Non-Small Cell Lung Cancer)) it was −27.95%; in the series with NCI 60 cell panel (HS 578T (Breast Cancer)) it was 17.96%; in the series with NCI 60 cell panel (HT29 (Colon Cancer)), 48.91%. For the same compound, the “Growth Percent” value was 46.89% in the series with NCI 60 cell panel (IGROV1 (Ovarian Cancer)); 7.94% in the series with NCI 60 cell panel (KM12 (Colon Cancer)); 5.15% with NCI 60 cell panel (LOX IMVI (Melanoma)); 22.46% in the series on NCI 60 cell panel (M14 (Melanoma)); −0.80% in the series with NCI 60 cell panel (MALME-3M (Melanoma)); 2.95% in the series with NCI 60 cell panel (MCF7 (Breast Cancer)). Further, the “Growth Percent” value is 1.43% in the series with NCI 60 cell panel (MDA-MB-231/ATCC (Breast Cancer)); 7.91% in the series on NCI 60 cell panel (MDA-MB-435 (Melanoma)); −26.3% in the series with NCI 60 cell panel (MDA-MB-468 (Breast Cancer)); 22.96% in the series on NCI 60 cell panel (MOLT-4 (Leukemia)); −0.16% in the series on NCI 60 cell panel (NCI-H23 (Non-Small Cell Lung Cancer)); 12.44% in the series on NCI 60 cell panel (NCI-H322M (Non-Small Cell Lung Cancer)). The “Growth Percent” value is 3.48% with NCI 60 cell panel (NCI-H460 (Non-Small Cell Lung Cancer)); −6.89% with NCI 60 cell panel (NCI-H522 (Non-Small Cell Lung Cancer)); 2.45% with NCI 60 cell panel (NCI/ADR-RES (Ovarian Cancer)); 2.95% in the series with NCI 60 cell panel (OVCAR-3 (Ovarian Cancer)); 20.48% with NCI 60 cell panel (OVCAR-4 (Ovarian Cancer)); 36.89% with NCI 60 cell panel (OVCAR-5 (Ovarian Cancer)). For the same compound, the “Growth Percent” value is on record as 12.48% with NCI 60 cell panel (OVCAR-8 (Ovarian Cancer)); 1.74% in the series on NCI 60 cell panel (PC-3 (Prostate Cancer)); −31.83% with NCI 60 cell panel (RPMI-8226 (Leukemia)); 21.93% with NCI 60 cell panel (SF-268 (CNS Cancer)); 0.83% in the series on NCI 60 cell panel (SF-295 (CNS Cancer)); 25.17% with NCI 60 cell panel (SF-539 (CNS Cancer)). For the same compound, the “Growth Percent” value in the series on NCI 60 cell panel (SK-MEL-2 (Melanoma)) was −13.82%; in the series with NCI 60 cell panel (SK-MEL-28 (Melanoma)), 33.67%; with NCI 60 cell panel (SK-OV-3 (Ovarian Cancer)), −7.94%; in the series on NCI 60 cell panel (SN12C (Renal Cancer)) it was 3.81%; in the series with NCI 60 cell panel (SNB-19 (CNS Cancer)) it was 13.09%; with NCI 60 cell panel (SNB-75 (CNS Cancer)), 30.14%. The “Growth Percent” value in the series with NCI 60 cell panel (SR (Leukemia)) is 33.69%; with NCI 60 cell panel (SW-620 (Colon Cancer)), 14.25%; in the series on NCI 60 cell panel (T-47D (Breast Cancer)) it was 2.83%; in the series on NCI 60 cell panel (TK-10 (Renal Cancer)), 11.38%; with NCI 60 cell panel (U251 (CNS Cancer)) it was 2.85%; in the series on NCI 60 cell panel (UACC-62 (Melanoma)), 17.46%. Further, the “Growth Percent” value with NCI 60 cell panel (UACC-257 (Melanoma)) is −14.05%; in the series with NCI 60 cell panel (UO-31 (Renal Cancer)), 3.89%. Further, the “Growth Percent, Delta” value with NCI 60 cell panel (Delta of the mean graph) was determined as 40.88%. The “Growth Percent, Mean” value with NCI 60 cell panel (Mean over the cell panel) is recorded as 9.05%. The “Growth Percent, Range” value in the series on NCI 60 cell panel (Range over the cell panel) was found to be 80.88%.
